Our source for the MIC values is patent US20230203081A1, “LINCOSAMIDE ANTIBIOTICS AND USES THEREOF” (President and Fellows of Harvard College, priority 2020, published 2023).

Converted amounts (≈) assume the structure as drawn. Read-outs that look alike come from different tables or passages of the source.

Assay type in all cases: cell-based
One experiment concerns S. aureus BAA 977 iErmA. Briefly: microbe, parasite or virus in culture. Conditions: Staphylococcus aureus. A digest of the protocol: (§1)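 Per CLSI, MICs by broth microdilution or agar dilution; strains other than streptococci and anaerobes were sub-cultured overnight at 35° C on blood agar, with a final broth inoculum of 5×10^5 CFU/mL.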
In experiment [1] the test system is broad panel of different clinical isolates. The experiment in a line: microbe, parasite or virus in culture. In short, it runs like this:
as §1

Another experiment relates to S. aureus MP-549 msrA. The experiment in a line: microbe, parasite or virus in culture. Conditions: Staphylococcus aureus, MP549MSRA. In short, it runs like this: as §1
Another experiment relates to E. coli armA. The experiment in a line: microbe, parasite or virus in culture. Conditions: Escherichia coli, E. coli HAV#056; Clinical, armA. A digest of the protocol:
as §1

Another experiment relates to E. coli ΔTolC. The experiment in a line: microbe, parasite or virus in culture. The note with it: Escherichia coli, E. coli HAV#038; ΔTolC. A digest of the protocol: as §1
Another experiment deals with A. baumannii ATCC 19606. The experiment in a line: MIC (broth microdilution or agar dilution, CLSI). The note with it: Acinetobacter baumannii, ATCC19606; A. baumanii HAV#010, ATCC 19606; read-out: MIC. In short, it runs like this:
as §1
Background: In broth dilution the organism is exposed to a series of concentrations in liquid medium.

A further experiment relates to S. aureus MMX 3035 cErmA. Briefly: MIC (broth microdilution or agar dilution, CLSI). The note with it: Staphylococcus aureus, MMX3035CERMA, read-out: MIC. In short, it runs like this:
as §1

Experiment [2] relates to S. pneumoniae MMX 3031 cMefA. Briefly: MIC (broth microdilution or agar dilution, CLSI). The note with it: Streptococcus pneumoniae, MMX3031CMEFA, read-out: MIC. A digest of the protocol: as §1
The next experiment relates to S. pneumoniae ATCC 6303. Briefly: MIC (broth microdilution or agar dilution, CLSI). Conditions: Streptococcus pneumoniae, ATCC6303; S. pneumoniae HAV#351, ATCC 6303; read-out: MIC. A digest of the protocol: as §1
The test system of experiment [3] is S. pyogenes MMX 946; cErmB. Briefly: MIC (broth microdilution or agar dilution, CLSI). The note with it: Streptococcus pyogenes, cErmB, read-out: MIC. In short, it runs like this: as §1
The next experiment relates to S. aureus ATCC 29213. Briefly: MIC (broth microdilution or agar dilution, CLSI). The note with it: Staphylococcus aureus, read-out: MIC. In short, it runs like this: as §1
A further experiment has as its system K. oxytoca Clinical. The experiment in a line: MIC (broth microdilution or agar dilution, CLSI). Conditions: Klebsiella oxytoca; K. oxytoca HAV#450; Clinical; read-out: MIC. In short, it runs like this:
as §1

The next experiment concerns E. coli ATCC 25922. Briefly: MIC (broth microdilution or agar dilution, CLSI). Conditions: Escherichia coli, ATCC25922, read-out: MIC. In short, it runs like this: as §1
The subject of another experiment is K. pneumoniae ATCC 10031. The experiment in a line: MIC (broth microdilution or agar dilution, CLSI). The note with it: Klebsiella pneumoniae, ATCC10031, K. pneumoniae HAV#008, ATCC 10031; read-out: MIC. A digest of the protocol: as §1
The test system of a further experiment is S. pyogenes ATCC 19615. Briefly: MIC (broth microdilution or agar dilution, CLSI). Conditions: Streptococcus pyogenes, read-out: MIC. In short, it runs like this: as §1
The test system of a further experiment is E. faecalis ATCC 29212. The experiment in a line: MIC (broth microdilution or agar dilution, CLSI). Conditions: Enterococcus faecalis, read-out: MIC. In short, it runs like this:
as §1

Experiment [4] deals with S. aureus ATCC BAA-1707 (MRSA). The experiment in a line: MIC (broth microdilution or agar dilution, CLSI). Conditions: Staphylococcus aureus; S. aureus HAV#016, ATCC BAA-1707; MRSA; read-out: MIC. A digest of the protocol: as §1
The test system of experiment [5] is E. faecalis MMX 847; cErmB. The experiment in a line: MIC (broth microdilution or agar dilution, CLSI). Conditions: Enterococcus faecalis, cErmB, read-out: MIC. A digest of the protocol: as §1
The next experiment concerns S. aureus hVISA. The experiment in a line: MIC (broth microdilution or agar dilution, CLSI). The note with it: Staphylococcus aureus; S. aureus HAV#204, hVISA; read-out: MIC. A digest of the protocol:
as §1

A further experiment concerns E. coli LptD. The experiment in a line: MIC (broth microdilution or agar dilution, CLSI). The note with it: Escherichia coli, E. coli HAV#040; LptD; read-out: MIC. A digest of the protocol:
as §1

The subject of a further experiment is S. pneumoniae ATCC 49619. The experiment in a line: MIC (broth microdilution or agar dilution, CLSI). The note with it: Streptococcus pneumoniae, read-out: MIC. A digest of the protocol:
as §1

Experiment [6] relates to S. pneumoniae MMX 3028 cErmB. The experiment in a line: MIC (broth microdilution or agar dilution, CLSI). Conditions: Streptococcus pneumoniae, MMX3028CERMB, read-out: MIC. In short, it runs like this:
as §1

For another experiment, the system named is H. influenzae ATCC 49247. Briefly: MIC (broth microdilution or agar dilution, CLSI). The note with it: Haemophilus influenzae, ATCC49247, read-out: MIC. A digest of the protocol: as §1
For another experiment, the system named is E. coli MP-9 ΔTolC. The experiment in a line: MIC (broth microdilution or agar dilution, CLSI). Conditions: Escherichia coli. A digest of the protocol: as §1
The test system of experiment [7] is E. coli MP-74 LptD mutant. Briefly: MIC (broth microdilution or agar dilution, CLSI). Conditions: Escherichia coli. In short, it runs like this:
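MICs were measured by CLSI broth microdilution or agar dilution over 128-0.06 μg/mL test compound at 2.5% final DMSO, in triplicate. Non-streptococcal, aerobic strains were grown overnight at 35° C on sheep blood agar, suspended in cation-adjusted Mueller-Hinton broth to 0.5 McFarland, and diluted to 5×10^5 CFU/mL.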

The mark [8] stands for this setting: ATCC29213, S. aureus ATCC 29213.
[9] abbreviates: ATCC19615, S. pyogenes ATCC 19615.
Setting [10] is: ATCC29212, E. faecalis ATCC 29212.
The mark [11] stands for this setting: ATCC49619, S. pneumoniae ATCC 49619.

`CC[C@H]1OC(=O)[C@H](C)[C@@H](O[C@H]2C[C@@](C)(OC)[C@@H](O)[C@H](C)O2)[C@H](C)[C@@H](O[C@@H]2O[C@H](C)C[C@H](N(C)C)[C@H]2O)[C@](C)(O)C[C@@H](C)C(=O)[C@H](C)[C@@H](O)[C@]1(C)O` [Erythromycin]: the MIC was more than 64 µg/mL with S. aureus BAA 977 iErmA (BAA-977 / MRSA); more than 64 µg/mL in experiment [1] (Enterococcus faecalis, VRE, E. faecalis HAV#251, Clinical VRE); more than 64 µg/mL in experiment [1] (Escherichia coli, E. coli HAV#501, Clinical); more than 64 µg/mL in experiment [1] (Klebsiella pneumoniae, K. pneumoniae HAV#041, Clinical, KPC); 0.5 µg/mL (≈ 0.681 µM) in [1] (Staphylococcus aureus, MRSA, S. aureus HAV#017, MRSA Col(Colindale, England)); 32 µg/mL (≈ 43.6 µM) in experiment [1] (Staphylococcus aureus, S. aureus HAV#216, Clinical, cfr). Moreover, the MIC is 64 µg/mL (≈ 87.2 µM) in [1] (Staphylococcus aureus, S. aureus HAV#217, cfr); more than 64 µg/mL in [1] (Staphylococcus aureus, VISA, S. aureus HAV#203, Clinical (VISA)); 8 µg/mL (≈ 10.9 µM) in experiment [1] (Staphylococcus epidermidis, S. epidermidis HAV# 275 Clinical, cfr); more than 128 µg/mL in experiment [1] (Staphylococcus epidermidis, S. epidermidis HAV# 276, cfr); 64 µg/mL (≈ 87.2 µM) against S. aureus MP-549 msrA (S. aureus HAV#032, MP-549, MSR(A)); 32 µg/mL (≈ 43.6 µM) with E. coli armA. For the same compound, the MIC was 4 µg/mL (≈ 5.45 µM) in the experiment on E. coli ΔTolC; 64 µg/mL (≈ 87.2 µM) in the experiment on A. baumannii ATCC 19606; more than 64 µg/mL in the experiment on S. aureus MMX 3035 cErmA (S. aureus HAV#031, MMX 3035, cErmA); 8 µg/mL (≈ 10.9 µM) in experiment [2] (S. pneumoniae HAV#034, MMX 3031, cMefA); 0.5 µg/mL (≈ 0.681 µM) in the experiment on S. pneumoniae ATCC 6303; more than 64 µg/mL in experiment [3] (S. pyogenes HAV#035, MMX 946, mac-resistant). In addition, the MIC with S. aureus ATCC 29213 (ATCC29213, S. aureus HAV#001, ATCC 29213, MP-549) is 0.5 µg/mL (≈ 0.681 µM); in the experiment on K. oxytoca Clinical, more than 64 µg/mL; in the experiment on E. coli ATCC 25922 (E. coli HAV#006, ATCC 25922), 64 µg/mL (≈ 87.2 µM); with K. pneumoniae ATCC 10031, 8 µg/mL (≈ 10.9 µM); with S. pyogenes ATCC 19615 (ATCC19615, S. pyogenes HAV#004, ATCC 19615), less than 0.06 µg/mL; in the experiment with E. faecalis ATCC 29212 (ATCC29212, E. faecalis HAV#005, ATCC 29212) it was 2 µg/mL (≈ 2.73 µM). The MIC is 0.5 µg/mL (≈ 0.681 µM) in experiment [4]; more than 64 µg/mL in experiment [5] (E. faecalis HAV#036, MMX 847, mac-resistant); more than 64 µg/mL with S. aureus hVISA; 1 µg/mL (≈ 1.36 µM) in the experiment on E. coli LptD; not above 0.06 µg/mL in the experiment on S. pneumoniae ATCC 49619 (ATCC49619, S. pneumoniae HAV#003, ATCC 49619); more than 64 µg/mL in experiment [6] (S. pneumoniae HAV#033, MMX 3028, cErmB). Moreover, in the experiment on H. influenzae ATCC 49247 (H. influenzae HAV#007, ATCC 49247), the MIC amounted to 8 µg/mL (≈ 10.9 µM).
`CSC1O[C@H]([C@H](NC(=O)[C@@H]2[C@@H]3OCC[C@@H](C4CCCC4)C[C@H]3CN2C)[C@H](C)Cl)CC(O)[C@H]1O` (stereo partly drawn) [FSA-513001b]: the MIC against S. aureus BAA 977 iErmA (BAA977) was 0.12 µg/mL (≈ 0.238 µM); in the experiment on S. aureus MP-549 msrA (S. aureus MP-549 msrA), 0.12 µg/mL (≈ 0.238 µM); in the experiment with S. aureus MMX 3035 cErmA (S. aureus MMX 3035 cErmA) it was 32 µg/mL (≈ 63.4 µM); against E. coli MP-9 ΔTolC, 2 µg/mL (≈ 3.96 µM); in experiment [2] (S. pneumoniae MMX 3031 cMefA), not above 0.06 µg/mL; in [3] (S. pyogenes MMX 946) it was 16 µg/mL (≈ 31.7 µM). Further, the MIC in the experiment on S. aureus ATCC 29213 (setting [8]) was 0.12 µg/mL (≈ 0.238 µM); in the experiment with E. coli ATCC 25922 (E. coli ATCC 25922), 64 µg/mL (≈ 127 µM); in the experiment on S. pyogenes ATCC 19615 (setting [9]), 0.06 µg/mL (≈ 0.119 µM); in the experiment with E. faecalis ATCC 29212 (setting [10]), 0.12 µg/mL (≈ 0.238 µM); in [5] (E. faecalis MMX 847) it was 16 µg/mL (≈ 31.7 µM); with S. pneumoniae ATCC 49619 (setting [11]), 0.06 µg/mL (≈ 0.119 µM). For the same compound, the results for the MIC (in experiment [6] (S. pneumoniae MMX 3028 cErmB); in the experiment on H. influenzae ATCC 49247 (H. influenzae ATCC 49247); in [7]) were 16 µg/mL (≈ 31.7 µM), 4 µg/mL (≈ 7.92 µM) and 4 µg/mL (≈ 7.92 µM), respectively.
For `CSC1O[C@H]([C@H](NC(=O)[C@@H]2[C@@H]3OCC[C@H](C4CCCCC4)C[C@H]3CN2C)[C@H](C)Cl)CC(O)[C@H]1O` (stereo partly drawn) [FSA-513002a], the MIC was 64 µg/mL (≈ 123 µM) in the experiment with E. coli MP-9 ΔTolC; 1 µg/mL (≈ 1.93 µM) in the experiment with S. aureus ATCC 29213 (setting [8]); more than 64 µg/mL in the experiment with E. coli ATCC 25922 (E. coli ATCC 25922); 1 µg/mL (≈ 1.93 µM) in the experiment with S. pyogenes ATCC 19615 (setting [9]); 2 µg/mL (≈ 3.85 µM) in the experiment with E. faecalis ATCC 29212 (setting [10]); 0.5 µg/mL (≈ 0.963 µM) with S. pneumoniae ATCC 49619 (setting [11]). Also, the figures for the MIC (with H. influenzae ATCC 49247 (H. influenzae ATCC 49247); in [7]) were more than 64 µg/mL and 64 µg/mL (≈ 123 µM), respectively.
